Test results reported in patent US20240122893A1 (priority 2021, published 2024).
pIC50: −log10 of the molar value. Counter-ions that a name gives are not always drawn. Like-named read-outs stand apart in the source and are kept apart here.

Tests used:
SARS-CoV-2 [1] = conditions: treatment of cells with NRF2 agonists; cited from earlier work
HCoV-OC43 [2] = test: microbe, parasite or virus in culture; type: cell-based, Human coronavirus OC43
SARS-CoV-2 [3] = test: CPE inhibition assay, SARS-CoV-2 strains in Vero C1008 cells; type: cell-based
MRC-5 cells = conditions: human
SARS-CoV-2/USA/WI1/2020 [4] = conditions: for protein concentration in bronchoalveolar lavage (BAL), measure of lung injury: 6 days post-infection; for SARS-CoV-2 spike protein distribution in the lungs: vs infected untreated animals
SARS-CoV-2/USA/WI1/2020 [5] = tested on: SARS-CoV-2/USA/WI1/2020
Description: Flow cytometry: Lungs were minced and incubated at 37° C. in an enzyme cocktail of RPMI containing 2.4 mg/ml collagenase I and 20 μg/ml DNase (Invitrogen), then mashed through a 70-μm nylon cell strainer (BD Falcon). […] For analysis immediately ex vivo, cells were washed once in PBS and immediately stained for viability with Biolegend Live/Dead Zombie NIR Fixable Viability Dye and Fc Block for 10 min at room temperature. Cell surface staining was performed in 100 uL of 20% BD Horizon™ Brilliant Stain Buffer+ PBS with surface stain antibody cocktail for 20 min at room temperature. Cells were fixed and permeabilized with eBioscience™ FoxP3/Transcription Factor Staining kit 1× Fixation/Permeabilization reagent overnight at 4° C. Cells were washed with 1× Permeabilization/Wash buffer. Intracellular staining (ICS) was performed in 100 uL 1× Permeabilization/Wash buffer with ICS antibody cocktail for 45 min at room temperature. Cells were washed once with Permeabilization/Wash buffer then resuspended in Permeabilization/Wash buffer for acquisition by flow. Samples were run on a 3 laser Cytek Aurora spectral flow cytometer. FCS files were analyzed using Flowjo v10 (10.6.2.) software.
Flow cytometry. Lungs were minced and incubated at 37° C. in an enzyme cocktail of RPMI containing 2.4 mg/mi collagenase I and 20 μg/ml DNase (Invitrogen), then mashed through a 70-μm nylon cell strainer (BD Falcon). […] For analysis immediately ex vivo, cells were washed once in PBS and immediately stained for viability with Biolegend Live/Dead Zombie NIR Fixable Viability Dye and Fc Block for 10 min at room temperature. Cell surface staining was performed in 100 μL of 20% BD Horizon™ Brilliant Stain Buffer+ PBS with surface stain antibody cocktail for 20 min at room temperature. Cells were fixed and permeabilized with eBioscience™ FoxP3/Transcription Factor Staining kit 1× Fixation/Permeabilization reagent overnight at 4° C. Cells were washed with 1× Permeabilization/Wash buffer. Intracellular staining (ICS) was performed in 100 μL 1× Permeabilization/Wash buffer with ICS antibody cocktail for 45 min at room temperature. Cells were washed once with Permeabilization/Wash buffer then resuspended in Permeabilization/Wash buffer for acquisition by flow. […] For the myeloid flow cytometry functional staining, the cells were incubated with protein transport inhibitors for 4 h. Samples were run on a 3 laser Cytek Aurora spectral flow cytometer or a FACSAria II spectral flow cytometer (BD). FCS files were analyzed using Flowjo v10.6.2 software (BD). […] High-dimensional unbiased analysis of cell phenotypes was performed using Flowjo plugins DownSample v3 and UMAP.

[6] = cited from earlier work
SARS-CoV-2 [7] = test: organism not typed; conditions: Caco-2, read-out: IC50, reduction of viral RNA
Description: vRNA determination: Zymo Quick-RNA Viral 96 Kit (Zymo Research) was used to isolate RNA from cell supematants according to the manufacturer's protocol. cDNA synthesis was performed using qScript cDNA Supermix containing randomhexamers and oligo-dT primers following the manufacture's protocol (Quanta Biosciences). Real-time PCR was performed in technical triplicate for each sample using TaqMan Fast Advanced Master Mix (Applied Biosystems) on a StepOne Plus Real Time PCR machine (Applied Biosystems). […] The cycling parameters were as follows: (i) 2 min at 50° C.; (ii) 2 min at 95° C.; and (iii) 45 cycles at 95° C. for 3s and 55° C. for 30 s. Molecular standard curves were generated using serial dilutions of a plasmid containing the complete SARS-CoV-2N gene (Integrated DNA Technologies, Catalog #10006625).
Viral RNA determination. Zymo Quick-RNA Viral 96 Kit (Zymo Research) was used to isolate RNA from cell supematants according to the manufacturer's protocol. cDNA synthesis was performed using qScript cDNA Supermix containing random hexamers and oligo-dT primers following the manufacture's protocol (Quanta Biosciences). Real-time quantitative reverse transcription
PCR (RT-qPCR) was performed in technical triplicate for each sample using TaqMan Fast Advanced Master Mix (Applied Biosystems) on a StepOne Plus Real Time PCR machine (Applied Biosystems). […]

HCoV-OC43 [8] = test: microbe, parasite or virus in culture; conditions: Betacoronavirus 1, OC43, MRC5, read-out: IC50, median inhibitory concentration
[9] = 30 mg/kg daily oral gavage, vs untreated infected controls
[10] = after PMA/ionomycin stimulation

Structure (SMILES): C=C(CC(=O)OCCCCCCCC)C(=O)O [4-octyl-itaconate]
- replication of SARS-CoV-2 in vitro (SARS-CoV-2 [1]): inhibited replication

Structure (SMILES): CCC(CC)COC(=O)[C@H](C)N[P@](=O)(OC[C@H]1O[C@@](C#N)(c2ccc3c(N)ncnn23)[C@H](O)[C@@H]1O)Oc1ccccc1 [RDV, remdesivir, reference compound]
- pIC50 (HCoV-OC43 [2]; Betacoronavirus 1, OC43, Vero C1008, drug added 1-2 h before virus, read-out: IC50, median inhibitory concentration): 4.66
- pIC50 (SARS-CoV-2 [3]; Severe acute respiratory syndrome coronavirus 2, Vero C1008, SARS-CoV-2, FIG. 2E, Vero C1008, drug 1 h before virus, read-out: IC50): 5.40
- pIC50 (SARS-CoV-2 [3]; Severe acute respiratory syndrome coronavirus 2, Vero C1008, four strains of SARS-CoV-2 (Example 1), read-out: IC50): 5.05 to 5.40
- TD50, median cytotoxic dose (Vero C1008 cells; Vero C1008, drug added 1-2 h before virus (HCoV-OC43 assay)): 142 µM

Structure (SMILES): C[S+]([O-])CCCCN=C=S (centres unmarked) [SFN, sulforaphane]
- pIC50 (HCoV-OC43 [2]; Betacoronavirus 1, OC43, Vero C1008, 24 h, Vero C1008, established infection, drug added 24 h after virus, read-out: IC50, median inhibitory concentration): 4.74
- pIC50 (HCoV-OC43 [2]; Betacoronavirus 1, OC43, Vero C1008, Vero C1008, drug 24 h before virus, drug washed out and then virus added, read-out: IC50, median inhibitory concentration): 4.68
- pIC50 (HCoV-OC43 [2]; Betacoronavirus 1, OC43, Vero C1008, read-out: IC50, median inhibitory concentration, Vero C1008, drug added 1-2 h before virus): 5.00
- pIC50 (SARS-CoV-2 [3]; 614G+ clinical strain USA/DCHP-7/2020 (DC)): 4.54
- pIC50 (SARS-CoV-2 [3]; 614G+ clinical strain USA/MDHP-20/2020 (MD)): 4.55
- pIC50 (SARS-CoV-2 [3]; Severe acute respiratory syndrome coronavirus 2, Vero C1008, 614G+ clinical strain USA/DCHP-7/2020 (DC)): 4.29
- pIC50 (SARS-CoV-2 [3]; Severe acute respiratory syndrome coronavirus 2, Vero C1008, 614G+ clinical strain USA/MDHP-20/2020 (MD)): 4.32
- pIC50 (SARS-CoV-2 [3]; Severe acute respiratory syndrome coronavirus 2, Vero C1008, 24 h, SARS-CoV-2-Wuhan-Hu-1, established infection, drug added 24 h after virus, read-out: IC50, median inhibitory concentration): 4.89
- pIC50 (SARS-CoV-2 [3]; Severe acute respiratory syndrome coronavirus 2, Vero C1008, both reference strains, Wuhan-Hu-1 and USA-WA1/2020 (Example 1)): 4.77 to 4.82
- pIC50 (SARS-CoV-2 [3]; Severe acute respiratory syndrome coronavirus 2, Vero C1008, read-out: IC50, median inhibitory concentration, SARS-CoV-2-Wuhan-Hu-1, Vero C1008, drug 1-2 h before virus): 4.92
- pIC50 (SARS-CoV-2 [3]; Severe acute respiratory syndrome coronavirus 2, Vero C1008, reference strain USA-WA1/2020, drug 1 h before virus (Example 2)): 4.51
- TD50, median cytotoxic dose, range over assays (Vero C1008 cells; African green monkey, human): 73 to 89 µM
- TD50, median cytotoxic dose (MRC-5 cells): 83 µM
- bodyweight loss, less than infected untreated controls (SARS-CoV-2/USA/WI1/2020 [4]; 30 mg/kg daily oral gavage from one day before inoculation, day 6 post inoculation): 7.5%
- protein concentration in bronchoalveolar lavage (BAL), measure of lung injury (SARS-CoV-2/USA/WI1/2020 [4]; [9]): significantly lower
- protein concentration in bronchoalveolar lavage (BAL), measure of lung injury (SARS-CoV-2/USA/WI1/2020 [4]; 30 mg/kg daily oral gavage, vs untreated infected controls, listed as sulforaphane): lower
- reduction in lung viral load, total SARS-CoV-2 N protein copies, not normalized to Pol2Ra (SARS-CoV-2/USA/WI1/2020 [4]; 30 mg/kg daily oral gavage, P=0.1308): 1.46 log
- weight loss compared to controls (SARS-CoV-2/USA/WI1/2020 [4]; 30 mg/kg daily oral gavage, day 6 post inoculation): lost significantly less weight
- reduction in lung viral load, SARS-CoV-2 N protein copies normalized to Pol2Ra (SARS-CoV-2/USA/WI1/2020 [4]; 30 mg/kg daily oral gavage, vs infected untreated controls): 1.5 log
- viral burden in BAL / alveolar fluid (qPCR) (SARS-CoV-2/USA/WI1/2020 [4]; [9]): significantly lower
- histopathology score of lung inflammation (SARS-CoV-2/USA/WI1/2020 [4]; 30 mg/kg daily, untreated controls 6/16): 1/16
- lung viral load, treated vs controls (Example 1) (SARS-CoV-2/USA/WI1/2020 [4]; daily oral gavage from one day before inoculation): no statistically significant differences
- reduction of viral replication in the lungs (SARS-CoV-2/USA/WI1/2020 [4]; prophylactic SFN treatment): 1.5 orders of magnitude
- SARS-CoV-2 spike protein distribution in the lungs (SARS-CoV-2/USA/WI1/2020 [4]): focal distribution
- SARS-CoV-2 spike protein distribution in the lungs (SARS-CoV-2/USA/WI1/2020 [4]; listed as sulforaphane): smaller area
- pulmonary pathology (H&E lung sections) (SARS-CoV-2/USA/WI1/2020 [4]; vs infected untreated mice): lower degree of pulmonary pathology
- B cells in the spleen and Ly6G+ neutrophils in the lung (SARS-CoV-2/USA/WI1/2020 [5]; Example 1): significantly higher expansion
- CCR2 expression on alveolar macrophages (SARS-CoV-2/USA/WI1/2020 [5]; Example 1): reduced
- CD86 on lung-resident macrophages (SARS-CoV-2/USA/WI1/2020 [5]; Example 1): increased
- IL-10 and TGFβ produced by macrophages (SARS-CoV-2/USA/WI1/2020 [5]; Example 1): increased
- Ki67 and MHCII on CD8 T cells immediately ex vivo (SARS-CoV-2/USA/WI1/2020 [5]; Example 1): upregulation
- PD-L1 expression on macrophages (SARS-CoV-2/USA/WI1/2020 [5]; Example 1): lower levels
- frequency of B cells, cytotoxic NK cells and CD8 T cells (SARS-CoV-2/USA/WI1/2020 [5]; Example 1): increased frequency
- expression of activation markers CD80, CD86, PD-L1, MHC-II on lung alveolar and interstitial macrophages (SARS-CoV-2/USA/WI1/2020 [5]; Example 2): lower expression
- PD1, MHC-II and Ki-67 on lung CD8+ and CD4+ T cells, directly ex vivo (SARS-CoV-2/USA/WI1/2020 [5]; Example 2, P<0.05): significantly decreased
- frequencies of lung alveolar and interstitial macrophages producing IL-10, IL-1β, TNF-α, TGF-β (SARS-CoV-2/USA/WI1/2020 [5]; Example 2, P<0.05): significantly lower frequencies
- infection-induced increase of IL-1β in alveolar macrophages (SARS-CoV-2/USA/WI1/2020 [5]; P<0.0001): abrogated
- CPT1a+VDAC+ myeloid cells in lung (SARS-CoV-2/USA/WI1/2020 [5]; P=0.01): significantly decreased
- percentage of monocytes and CD11c+ dendritic cells out of total CD45+ immune cells in the lungs (SARS-CoV-2/USA/WI1/2020 [5]; P=0.01): significantly decreased
- IFN-γ and IL-10 from lung CD4+ T cells (SARS-CoV-2/USA/WI1/2020 [5]; [10]): lower levels
- frequency of IL-4 and IL-17 in CD4+ T cells (SARS-CoV-2/USA/WI1/2020 [5]; [10]): not significantly altered
- TNF-α in alveolar macrophages and IFN-γ in T cells (SARS-CoV-2/USA/WI1/2020 [5]; mouse, in vivo): reduction
- recruitment of myeloid cells (monocytes, dendritic cells) into the lungs (SARS-CoV-2/USA/WI1/2020 [5]; vs infected untreated mice): significantly reduced
- tolerability ([6]; SFN-rich broccoli sprouts corresponding to 50 to 400 μmol SFN daily): well tolerated without clinically significant adverse effects
- elimination from plasma ([6]; in vivo): rapidly eliminated from plasma
- pIC50 (SARS-CoV-2 [7]): 5.62
- pIC50 (HCoV-OC43 [8]): 4.74

Structure (SMILES): COC(=O)/C=C/C(=O)OC [dimethyl fumarate]
- replication of SARS-CoV-2 in vitro (SARS-CoV-2 [1]): inhibited replication
